Drawing on patent US5763469A, “Substituted cyclic ureas and derivatives thereof useful as retroviral protease inhibitors” (The DuPont Merck Pharmaceutical Company, priority 1996, dated 1998), this text covers IC90 for one molecule.

The structures appear in SMILES notation. In brackets after ≈: the same amount, converted by molar mass.

In the assay the test system is HIV-1 (RF). The assay is described as follows: HIV RNA assay: microplate based compound evaluation in HIV-1 infected MT-2 cells. Type of assay: cell-based. The following applies: Human immunodeficiency virus 1, MT2, 72 h; HIV-1 (RF) infected MT-2 cells, 3 days of culture; virus dilutions were selected to give this value (standardisation of inoculum); read-out: IC90 value (concentration of compound required to reduce the HIV RNA level by 90%). As for the experimental part: MT-2, CEM, and H9 cells were maintained in RPMI 1640 supplemented with 5% fetal calf serum (FCS), 2 mM L-glutamine and 50 μg/mL gentamycin, all from Gibco. Laboratory strains of HIV-1 (RF, MN and IIIB) were propagated in H9 cells in the same medium. Virus stocks were prepared approximately 1 month after acute infection of H9 cells by clarification of the tissue culture medium and storage of aliquots at -70° C. Infectious titers of HIV-1 (RF) stocks were 1-3×10^7 PFU (plaque forming units)/mL as measured by plaque assay on MT-2 cells (see below). Each aliquot of virus stock used for infection was thawed only once. […]
Cell lysates or purified RNA in 3M or 5M GED were mixed with 5M GED and capture probe to a final guanidinium isothiocyanate concentration of 3M and a final biotin oligonucleotide concentration of 30 nM. […] Immobilized alkaline phosphatase activity was detected by addition of 100 μL of 0.2 mM 4-methylumbelliferyl phosphate (MUBP, JBL Scientific) in buffer δ(2.5M diethanolamine pH 8.9 (JBL Scientific), 10 mM MgCl2, 5 mM zinc acetate dihydrate and 5 mM N-hydroxyethyl-ethylene-diamine-triacetic acid). […] Fluorescence at […] was measured using a microplate fluorometer (Dynateck) exciting at 365 nm.
Compounds to be evaluated were dissolved in DMSO and diluted in culture medium to twice the highest concentration to be tested and a maximum DMSO concentration of 2%. […]

In the case of `Nc1ccn([C@H]2CC[C@@H](CO)O2)c(=O)n1` [ddC, dideoxycytidine], the IC90 worked out at 0.2 µg/mL (≈ 0.947 µM).
